# Laboratory results reported in paper PMC9612005 (Pharmaceutics, 2022).
# Columns and labels:
# [1] = molecular target: T1, cone CNG channels (CNGA3:CNGB3) (Homo sapiens, UniProt Q16281+Q9NQW8); assay: Patch-clamp on inside-out patches, heterotetrameric cone CNG channels expressed in Xenopus laevis oocytes; format: cell-based; conditions: for EC50: concentration-activation relationship, Hill fit, read-out: EC50, cone CNG channels; for efficacy in activating cone CNG channels compared to cGMP: related to maximal cGMP-induced current; for effect on cGMP-activated cone CNG-channel activity: analogue(s) co-applied with cGMP (50 µM; combination 50 µM inhibitor + activator)
# T1 construct: expressed in transfected cells; host or cells: Xenopus laevis oocytes (cRNA injection, pGEMHE vector); inside-out patches
# T1 sequence (Q16281 1-694): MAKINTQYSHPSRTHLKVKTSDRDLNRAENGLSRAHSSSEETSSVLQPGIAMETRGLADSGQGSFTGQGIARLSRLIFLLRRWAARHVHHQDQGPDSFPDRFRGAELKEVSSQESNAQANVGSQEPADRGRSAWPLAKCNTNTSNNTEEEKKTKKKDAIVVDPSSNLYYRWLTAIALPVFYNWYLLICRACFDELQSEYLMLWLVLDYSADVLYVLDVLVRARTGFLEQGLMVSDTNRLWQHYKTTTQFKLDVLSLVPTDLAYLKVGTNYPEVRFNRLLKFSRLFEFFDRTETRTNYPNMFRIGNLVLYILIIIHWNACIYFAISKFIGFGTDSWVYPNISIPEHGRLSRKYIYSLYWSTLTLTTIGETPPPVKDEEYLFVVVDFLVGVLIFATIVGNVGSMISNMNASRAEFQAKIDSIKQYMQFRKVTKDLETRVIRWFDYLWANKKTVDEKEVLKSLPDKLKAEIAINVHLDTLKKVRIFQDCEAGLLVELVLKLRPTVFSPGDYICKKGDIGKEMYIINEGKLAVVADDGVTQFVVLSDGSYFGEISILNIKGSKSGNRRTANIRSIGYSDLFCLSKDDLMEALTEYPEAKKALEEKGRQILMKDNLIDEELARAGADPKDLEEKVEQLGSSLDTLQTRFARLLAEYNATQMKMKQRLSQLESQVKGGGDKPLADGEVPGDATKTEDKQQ
# T1 sequence (Q9NQW8 1-809): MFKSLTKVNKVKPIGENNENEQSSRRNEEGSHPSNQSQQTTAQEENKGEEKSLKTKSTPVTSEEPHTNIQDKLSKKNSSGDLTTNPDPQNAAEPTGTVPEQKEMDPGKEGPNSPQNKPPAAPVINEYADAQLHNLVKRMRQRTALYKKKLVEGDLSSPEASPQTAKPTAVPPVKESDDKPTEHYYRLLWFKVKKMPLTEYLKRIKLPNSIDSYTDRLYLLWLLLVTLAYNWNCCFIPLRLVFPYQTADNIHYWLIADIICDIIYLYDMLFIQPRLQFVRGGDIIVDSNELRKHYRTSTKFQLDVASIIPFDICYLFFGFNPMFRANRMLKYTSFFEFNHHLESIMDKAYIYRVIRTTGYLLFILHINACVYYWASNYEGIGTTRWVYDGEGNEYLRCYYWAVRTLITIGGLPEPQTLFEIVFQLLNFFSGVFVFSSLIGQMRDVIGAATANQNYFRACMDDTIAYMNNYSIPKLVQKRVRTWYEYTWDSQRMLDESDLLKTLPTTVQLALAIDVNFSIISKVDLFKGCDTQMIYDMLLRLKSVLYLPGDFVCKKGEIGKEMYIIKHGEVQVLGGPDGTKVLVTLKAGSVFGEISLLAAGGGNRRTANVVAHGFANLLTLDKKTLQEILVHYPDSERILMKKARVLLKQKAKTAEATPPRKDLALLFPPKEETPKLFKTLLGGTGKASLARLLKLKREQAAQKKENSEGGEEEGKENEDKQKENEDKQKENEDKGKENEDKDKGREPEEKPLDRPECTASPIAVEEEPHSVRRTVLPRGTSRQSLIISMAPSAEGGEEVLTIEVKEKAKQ
# Text: The patch pipettes were pulled from borosilicate glass tubing (outer diameter 2.0 mm, inner diameter 1.0 mm; Hilgenberg GmbH, Malsfeld, Germany). The initial resistance of the solution-filled pipettes was 0.6–1.4 MΩ. […] For studying the activation and deactivation kinetics of CNG channels, we performed fast jumps between different ligand concentrations by means of a double-barreled θ-glass pipette mounted on a piezo-driven device, which was controlled by the computer. For measuring the time courses, the recording rate was 20 kHz.
# The activation and deactivation time courses were determined by fitting the respective current traces with single exponentials:(3) I(t)=A∗exp[−t/τ] where A is the amplitude, t the time, and τ the time constant for either activation or deactivation.
# [2] = molecular target: T2, rod CNG channels (CNGA1:CNGB1a) (Bos taurus, UniProt Q00194+Q28181); assay: Patch-clamp on inside-out patches, heterotetrameric rod CNG channels expressed in Xenopus laevis oocytes; format: cell-based, bovine; conditions: for efficacy in activating rod CNG channels compared to cGMP: related to maximal cGMP-induced current; for effect on cGMP-activated rod CNG-channel activity: analogue(s) co-applied with cGMP (50 µM; combination 50 µM inhibitor + activator)
# T2 construct: expressed in transfected cells; host or cells: Xenopus laevis oocytes (cRNA injection, pGEMHE vector); inside-out patches
# Text: The patch pipettes were pulled from borosilicate glass tubing (outer diameter 2.0 mm, inner diameter 1.0 mm; Hilgenberg GmbH, Malsfeld, Germany). The initial resistance of the solution-filled pipettes was 0.6–1.4 MΩ. […] For studying the activation and deactivation kinetics of CNG channels, we performed fast jumps between different ligand concentrations by means of a double-barreled θ-glass pipette mounted on a piezo-driven device, which was controlled by the computer. For measuring the time courses, the recording rate was 20 kHz. […]
# CNG-channel in rods = system: CNG-channel in rods; design: method as in PMID 8778280; conditions: previous study, ref [44]; cited from earlier work
# [3] = cGMP + 50 µM of the cGMP analogue
# [4] = 100 µM, +100 mV, activity triggered by 3 mM cGMP
# T2 sequence (Q00194 whole entry): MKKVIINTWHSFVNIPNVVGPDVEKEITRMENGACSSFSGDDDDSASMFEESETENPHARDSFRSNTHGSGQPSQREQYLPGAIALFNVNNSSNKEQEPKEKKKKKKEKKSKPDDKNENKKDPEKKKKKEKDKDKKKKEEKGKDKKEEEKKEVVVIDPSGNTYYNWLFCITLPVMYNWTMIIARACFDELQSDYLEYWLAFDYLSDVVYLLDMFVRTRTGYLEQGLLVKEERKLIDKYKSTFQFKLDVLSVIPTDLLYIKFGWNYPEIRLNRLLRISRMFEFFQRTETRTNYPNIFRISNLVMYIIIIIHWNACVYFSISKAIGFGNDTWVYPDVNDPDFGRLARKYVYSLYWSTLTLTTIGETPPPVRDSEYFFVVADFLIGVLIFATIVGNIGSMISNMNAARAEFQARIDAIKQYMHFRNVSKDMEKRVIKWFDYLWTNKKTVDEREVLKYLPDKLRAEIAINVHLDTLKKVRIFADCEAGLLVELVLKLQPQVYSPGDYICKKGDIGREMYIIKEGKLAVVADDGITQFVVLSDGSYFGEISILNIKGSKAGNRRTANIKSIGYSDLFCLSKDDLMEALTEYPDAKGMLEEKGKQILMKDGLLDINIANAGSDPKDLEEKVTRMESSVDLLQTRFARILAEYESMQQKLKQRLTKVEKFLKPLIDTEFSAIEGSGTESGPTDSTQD
# T2 sequence (Q28181 whole entry): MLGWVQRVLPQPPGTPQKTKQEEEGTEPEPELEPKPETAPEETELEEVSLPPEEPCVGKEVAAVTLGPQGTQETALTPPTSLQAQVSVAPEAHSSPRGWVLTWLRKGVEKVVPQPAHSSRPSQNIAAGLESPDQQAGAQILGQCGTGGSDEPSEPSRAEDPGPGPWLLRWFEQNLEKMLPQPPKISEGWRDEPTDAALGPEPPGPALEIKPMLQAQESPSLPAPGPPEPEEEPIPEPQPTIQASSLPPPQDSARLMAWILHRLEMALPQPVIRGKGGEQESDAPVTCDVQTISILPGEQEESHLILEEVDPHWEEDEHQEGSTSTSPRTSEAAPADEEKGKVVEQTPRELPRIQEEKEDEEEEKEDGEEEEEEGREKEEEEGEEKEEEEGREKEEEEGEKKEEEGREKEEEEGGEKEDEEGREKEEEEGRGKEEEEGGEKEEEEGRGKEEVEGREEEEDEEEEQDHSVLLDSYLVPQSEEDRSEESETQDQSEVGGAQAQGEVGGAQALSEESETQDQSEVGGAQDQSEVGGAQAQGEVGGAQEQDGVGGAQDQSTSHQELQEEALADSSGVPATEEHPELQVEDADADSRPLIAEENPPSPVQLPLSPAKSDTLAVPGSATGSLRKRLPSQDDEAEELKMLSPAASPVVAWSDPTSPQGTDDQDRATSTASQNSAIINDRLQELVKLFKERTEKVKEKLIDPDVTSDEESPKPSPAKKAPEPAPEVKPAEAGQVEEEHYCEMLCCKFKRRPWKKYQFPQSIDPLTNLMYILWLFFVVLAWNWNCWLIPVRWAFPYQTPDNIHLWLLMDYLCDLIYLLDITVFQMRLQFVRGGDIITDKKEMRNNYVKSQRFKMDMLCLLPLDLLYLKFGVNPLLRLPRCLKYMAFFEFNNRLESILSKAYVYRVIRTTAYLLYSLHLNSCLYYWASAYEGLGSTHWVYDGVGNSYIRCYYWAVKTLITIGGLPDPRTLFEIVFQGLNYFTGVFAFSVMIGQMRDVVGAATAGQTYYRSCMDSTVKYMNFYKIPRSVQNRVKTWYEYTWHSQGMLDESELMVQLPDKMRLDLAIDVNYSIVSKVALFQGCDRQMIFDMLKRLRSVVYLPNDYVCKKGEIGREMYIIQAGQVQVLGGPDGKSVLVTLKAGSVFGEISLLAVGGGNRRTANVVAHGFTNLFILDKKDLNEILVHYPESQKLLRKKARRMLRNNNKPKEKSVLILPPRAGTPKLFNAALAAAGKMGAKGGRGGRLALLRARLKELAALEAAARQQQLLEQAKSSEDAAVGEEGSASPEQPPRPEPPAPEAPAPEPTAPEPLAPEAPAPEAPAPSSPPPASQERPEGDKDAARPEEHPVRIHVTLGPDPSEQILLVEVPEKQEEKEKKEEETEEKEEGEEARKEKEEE
SMILES,efficacy in activating cone CNG channels compared to cGMP ([1]; +100 mV),effect on cGMP-activated cone CNG-channel activity [1],"H (Hill coefficient), cone CNG channels [1, 3]",efficacy in activating rod CNG channels compared to cGMP ([2]; +100 mV),"H (Hill coefficient), rod CNG channels [2, 3]",other results
"Nc1nc2c(ncn2[C@@H]2O[C@@H]3COP(=O)(O)O[C@H]3[C@H]2O)c(=O)[nH]1 [cGMP, reference compound]",,,,,,"deactivation time constant τdeact, cone CNG channels ([1]; 5 µM cGMP alone or 5 µM cGMP + 50 µM inhibitor + 0.1 µM activator, concentration jump): 80.6 ± 4.6 ms; H (Hill coefficient), cone CNG channels ([1]; ligand alone): 1.47; EC50 ([1]; ligand alone): 11.1 µM; H (Hill coefficient), rod CNG channels ([2]; ligand alone): 2.1"
Nc1nc2c(ncn2[C@@H]2O[C@@H]3CO[P@@](=O)(S)O[C@H]3[C@H]2O)c(=O)[nH]1 [Rp-cGMPS],lower efficacy than cGMP,did not influence the activity of cone channels,1.13,lower efficacy than cGMP,1.52,
O=c1c2nc(Br)n([C@@H]3O[C@@H]4CO[P@@](=O)(S)O[C@H]4[C@H]3O)c2nc2[nH]c(-c3ccc4ccccc4c3)cn12 [Rp-8-Br-(2-N)ET-cGMPS],lower efficacy than cGMP,,1.53,lower efficacy than cGMP,1.66,
"O=C1Cn2c(nc3c(nc(Br)n3[C@@H]3O[C@@H]4CO[P@@](=O)(S)O[C@H]4[C@H]3O)c2=O)N1 [Rp-ß-1,N2-Ac-Br-cGMPS, Rp-ß-1,N^2-Ac-Br-cGMPS]",lower efficacy than cGMP,did not influence the activity of cone channels,1.64,lower efficacy than cGMP,2.06,
O=c1c2ncn([C@@H]3O[C@@H]4COP(=O)(O)O[C@H]4[C@H]3O)c2nc2[nH]c(-c3ccccc3)cn12 [PET-cGMP],partial agonist,,,partial agonist,,
O=c1c2nc(Br)n([C@@H]3O[C@@H]4COP(=O)(O)O[C@H]4[C@H]3O)c2nc2[nH]c(-c3ccccc3)cn12 [8-Br-PET-cGMP],,"under physiological cGMP it produced a potentiation of retinal CNG-channel activity, whereas at higher cGMP it caused minor inhibition",1.5,,1.05,"effect on cGMP-activated rod CNG-channel activity [2]: under physiological cGMP it produced a potentiation of retinal CNG-channel activity, whereas at higher cGMP it caused minor inhibition; Emax ([2]; read-out: efficacy of activating rod channel, of maximal activation): < 1%"
"COc1ccc([C@H]2Sc3ccccc3N(CCN(C)C)C(=O)[C@H]2OC(C)=O)cc1 (relative stereo) [L-cis-diltiazem, reference compound]",,,,,,"block of cone CNG channel activity [1, 4]: ~ 63.4%; block of rod CNG channel activity [2, 4]: ~ 90.5%"
Nc1nc2c(nc(Br)n2[C@@H]2O[C@@H]3COP(=O)(O)O[C@H]3[C@H]2O)c(=O)[nH]1 [8-Br-cGMP],,,,,,"H (Hill coefficient), cone CNG channels ([1]; ligand alone): 1.94; EC50 ([1]; ligand alone): 1.05 µM; H (Hill coefficient), rod CNG channels ([2]; ligand alone): 2.1; EC50 ([2]; ligand alone, concentration-activation relationship, Hill fit, read-out: EC50, rod CNG channels): 6.61 µM"
Nc1nc2c(nc(Sc3ccc(Cl)cc3)n2[C@@H]2O[C@@H]3CO[P@@](=O)(S)O[C@H]3[C@H]2O)c(=O)[nH]1 [Rp-8-pCPT-cGMPS],drastically reduced the efficacy,"their activity at physiological cGMP increased, and at higher cGMP levels decreased",1.04,drastically reduced the efficacy,1.23,"maximal CNG-channel activation in rods (CNG-channel in rods): ~ 93%; effect on cGMP-activated rod CNG-channel activity [2]: their activity at physiological cGMP increased, and at higher cGMP levels decreased"
O=c1c2ncn([C@@H]3O[C@@H]4CO[P@@](=O)(S)O[C@H]4[C@H]3O)c2nc2[nH]c(-c3ccc4ccccc4c3)cn12 [Rp-(2-N)ET-cGMPS],lower efficacy than cGMP,,1.84,lower efficacy than cGMP,1.68,
